Laboratory results from patent US7671085B2, “Non-steroidal farnesoid X receptor modulators and methods for the use thereof” (The Salk Institute for Biological Studies, priority 2002, dated 2010).
“Also recorded” adds a separate entry of the source.

Key:
[1] = biological target: T1, FXR ligand-binding domain (Homo sapiens, UniProt Q96RI1); assay: FRET-based coactivator binding assay (SRC-1 peptide recruitment); assay type: biochemical
T1 sequence (Q96RI1 262-486 limits assumed): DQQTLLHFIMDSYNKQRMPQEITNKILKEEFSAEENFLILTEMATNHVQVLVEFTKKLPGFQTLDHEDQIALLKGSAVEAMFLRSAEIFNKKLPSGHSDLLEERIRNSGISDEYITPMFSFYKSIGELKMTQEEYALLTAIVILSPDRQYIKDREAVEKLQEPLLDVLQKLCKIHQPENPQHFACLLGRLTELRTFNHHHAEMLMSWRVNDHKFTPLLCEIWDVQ
Description: To determine if the compounds identified as ligands could promote the association of FXR with co-activators in vitro, a fluorescence resonance energy transfer (FRET)-based coactivator binding assay was employed (see, for example, Makishima et al. (1999), supra, Urizar et al. (2002). A natural product that lowers cholesterol as an antagonist ligand for FXR. Science. 296(5573), 1703-6). This assay relies on an agonist-induced interaction between the nuclear receptor and its coactivator bringing two fluorogenic partners together resulting in the nuclear receptor ligand-dependent FRET.

mouse FXR and human RXR = biological target: T2, mouse FXR and human RXR (Mus musculus, UniProt Q60641); assay: CV-1 transient transfection reporter gene assay, TK minimal promoter with ECRE or ER-8 FXRE; assay type: cell-based; conditions: CV-1 cells; for concentration at which maximal activity is achieved: ECRE and ER-8 reporters; for activation of ECRE FXRE reporter: six copies of ECRE, TK minimal promoter; for activation of ER-8 FXRE reporter: two copies of ER-8, TK minimal promoter
T2 construct: expressed in transfected cells; host or cells: CV-1 cells
T2 sequence (Q60641 1-488): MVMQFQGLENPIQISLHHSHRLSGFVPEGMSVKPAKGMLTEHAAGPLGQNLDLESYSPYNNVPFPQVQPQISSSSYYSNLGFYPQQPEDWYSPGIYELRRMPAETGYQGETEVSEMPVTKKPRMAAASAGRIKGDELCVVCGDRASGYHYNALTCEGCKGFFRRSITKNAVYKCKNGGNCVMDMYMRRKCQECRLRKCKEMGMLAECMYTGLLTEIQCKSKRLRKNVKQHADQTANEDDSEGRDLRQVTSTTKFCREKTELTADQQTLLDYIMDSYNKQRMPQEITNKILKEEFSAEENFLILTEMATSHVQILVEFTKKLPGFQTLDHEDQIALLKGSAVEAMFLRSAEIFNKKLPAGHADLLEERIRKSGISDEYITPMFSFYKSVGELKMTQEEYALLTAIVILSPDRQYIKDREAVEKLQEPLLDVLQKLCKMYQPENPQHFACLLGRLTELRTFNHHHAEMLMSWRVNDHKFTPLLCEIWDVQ
T2 sequence (P19793 1-462 partner): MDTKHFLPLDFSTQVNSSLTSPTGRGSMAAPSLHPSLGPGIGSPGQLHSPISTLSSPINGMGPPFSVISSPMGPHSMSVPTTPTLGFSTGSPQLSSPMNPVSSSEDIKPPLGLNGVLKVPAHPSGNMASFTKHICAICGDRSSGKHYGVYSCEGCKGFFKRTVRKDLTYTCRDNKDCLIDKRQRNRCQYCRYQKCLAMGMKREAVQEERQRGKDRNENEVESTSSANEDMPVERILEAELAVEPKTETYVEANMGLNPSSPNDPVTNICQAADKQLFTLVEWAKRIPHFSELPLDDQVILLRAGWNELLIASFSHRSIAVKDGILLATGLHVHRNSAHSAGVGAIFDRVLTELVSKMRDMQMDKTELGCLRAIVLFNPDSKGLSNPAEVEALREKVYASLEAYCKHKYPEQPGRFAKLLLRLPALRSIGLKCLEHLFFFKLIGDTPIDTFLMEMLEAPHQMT
Procedure: The ability of these compounds to activate the receptor in a number of different cell-based reporter gene assays was then determined. […] CV-1 cells were transiently transfected with an expression plasmid for mouse FXR and human RXR with a thymidine kinase (TK) minimal promoter reporter vector containing either no copies or six copies of the ecdysone response element (ECRE), a well-characterized FXR response element (FXRE). In addition, two copies of the recently identified FXRE everted repeat separated by 8 nucleotides (ER-8) was also studied (see, for example, Laffitte et al. (2000). Identification of the DNA binding specificity and potential target genes for the farnesoid X-activated receptor. J Biol Chem. 275(14), 10638-47; Kast et al. (2002). Regulation of multidrug resistance-associated protein 2 (ABCC2) by the nuclear receptors pregnane X receptor, farnesoid X-activated receptor, and constitutive androstane receptor. J Biol Chem. 277(4), 2908-15).

FXR = biological target: T3, FXR (Homo sapiens, UniProt Q96RI1); assay: cell-based FXR transcription assay, FXR responsive promoter linked to luciferase reporter; conditions: for RE^a: cell-based FXR reporter assay, footnote a not given; for FXR activation, in words: cell-based reporter assay, SAR discussion
T3 construct: using a full length FXR on a natural response element; expressed in transfected cells
T3 sequence (Q96RI1 1-486): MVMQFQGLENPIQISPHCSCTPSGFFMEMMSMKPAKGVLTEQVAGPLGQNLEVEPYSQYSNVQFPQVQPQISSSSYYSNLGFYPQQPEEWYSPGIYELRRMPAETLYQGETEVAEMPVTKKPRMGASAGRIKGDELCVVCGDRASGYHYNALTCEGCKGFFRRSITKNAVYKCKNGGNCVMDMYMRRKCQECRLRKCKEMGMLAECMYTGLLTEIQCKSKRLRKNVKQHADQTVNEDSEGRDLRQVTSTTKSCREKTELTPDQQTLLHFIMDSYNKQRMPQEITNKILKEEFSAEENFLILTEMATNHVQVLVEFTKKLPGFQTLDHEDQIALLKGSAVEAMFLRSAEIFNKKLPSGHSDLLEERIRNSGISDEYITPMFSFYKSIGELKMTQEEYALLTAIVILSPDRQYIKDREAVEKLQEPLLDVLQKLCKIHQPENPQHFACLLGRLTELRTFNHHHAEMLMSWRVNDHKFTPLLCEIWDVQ
How it was run: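 Cells co-transfected with full-length FXR and a luciferase reporter driven by a natural response element on a minimal promoter. Compound exposure ≈10 μM for 18 h before washing and luciferase read-out, in 384-well format, with CDCA as reference activator. EC50 derived from transcriptional activity.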

Row | EC50 [1] [nM] | concentration at which maximal activity is achieved (mouse FXR and human RXR) [µM] | activation of ECRE FXRE reporter (mouse FXR and human RXR) [fold] | activation of ER-8 FXRE reporter (mouse FXR and human RXR) [fold] | RE^a (FXR) | FXR activation, in words (FXR) | SMILES
1 | 222 | 1 | 100 | 4 | 1.90 | excellent activity | COC(=O)/C=C/c1cccc(N(Cc2ccc(-c3ccc4c(c3)OCO4)cc2)C(=O)C2CCCCC2)c1 [Compound 244]
2 | 255 | 1 | 100 | 4 | 1.72 | excellent activity | COC(=O)/C=C/c1cccc(N(Cc2ccc(-c3ccc(N(C)C)cc3)cc2)C(=O)C2CCCCC2)c1 [Compound 259]

Row | SMILES | EC50 [1] [nM] | concentration at which maximal activity is achieved (mouse FXR and human RXR) [µM] | activation of ECRE FXRE reporter (mouse FXR and human RXR) [fold] | activation of ER-8 FXRE reporter (mouse FXR and human RXR) [fold] | RE^a (FXR) | FXR activation, in words (FXR)
3 | COC(=O)C=Cc1cccc(N(Cc2ccc(C=Cc3ccccc3)cc2)C(=O)C2CCCCC2)c1 [Compound 121] | ~255 | 1 | 100 | 4 | 1.55 | excellent activity; also recorded: among the most active
